Data from the supplement of paper PMC10307832.

Legend:
Assay in all cases: relative viability (nuclei count vs DMSO), 5 days (fraction); higher = more cells survive
[1] = compound: CC(C)CCN1c2nc(Nc3cc(F)c(O)c(F)c3)ncc2N(C)C(=O)C1C [BI-D1870] + CC(C)C[C@H](NC(=O)[C@H](Cc1ccccc1)NC(=O)c1cnccn1)B(O)O [Bortezomib] (partner 0.002 µM)
In short: (§1)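 Relative viability equals treated-well nuclei counts divided by vehicle-well nuclei counts. Counts came from 4× images of lung cancer cell lines grown in 1536-well plates for 5 days after pin-tool dosing on the day after seeding. Dosing used one drug alone or a fixed anchor-drug dose plus five library-drug doses (not always all listed) in √10 steps, and values are medians of duplicate plates.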

[2] = compound: CC(C)CCN1c2nc(Nc3cc(F)c(O)c(F)c3)ncc2N(C)C(=O)C1C [BI-D1870] + O=C(CCCCCCC(=O)Nc1ccccc1)NO [Vorinostat] (partner 1 µM)
In short: as §1

[3] = compound: CC(C)CCN1c2nc(Nc3cc(F)c(O)c(F)c3)ncc2N(C)C(=O)C1C [BI-D1870] + C[C@@H](Oc1cc(-c2cnn(C3CCNCC3)c2)cnc1N)c1c(Cl)ccc(F)c1Cl [Crizotinib] (partner 1 µM)
In short: as §1

[4] = compound: CC(C)CCN1c2nc(Nc3cc(F)c(O)c(F)c3)ncc2N(C)C(=O)C1C [BI-D1870] + CCNC(=O)c1noc(-c2cc(C(C)C)c(O)cc2O)c1-c1ccc(CN2CCOCC2)cc1 [Luminespib] (partner 0.01 µM)
In short: as §1

With UMC-11 the relative viability ([1]; first compound 0.04 µM) was 0.788, the relative viability ([1]; first compound 0.1265 µM) was 0.647 and the relative viability ([1]; first compound 0.4 µM) was 0.561. The relative viability ([1]; first compound 1.265 µM) was 0.712, the relative viability ([1]; first compound 4 µM) was 0.553 and the relative viability ([2]; first compound 0.04 µM) was 0.394. For the same cell line, the relative viability ([2]; first compound 0.1265 µM) was 0.377, the relative viability ([2]; first compound 0.4 µM) was 0.337 and the relative viability ([2]; first compound 1.265 µM) was 0.329. It also gave a relative viability ([2]; first compound 4 µM) of 0.128, a relative viability ([3]; first compound 0.04 µM) of 0.477 and a relative viability ([3]; first compound 0.1265 µM) of 0.585. It also gave a relative viability ([3]; first compound 0.4 µM) of 0.533, a relative viability ([3]; first compound 1.265 µM) of 0.694 and a relative viability ([3]; first compound 4 µM) of 0.172. It also gave a relative viability ([4]; first compound 0.04 µM) of 1.06, a relative viability ([4]; first compound 0.1265 µM) of 1.05 and a relative viability ([4]; first compound 0.4 µM) of 0.939. It also gave a relative viability ([4]; first compound 1.265 µM) of 1.08 and a relative viability ([4]; first compound 4 µM) of 0.206.
